The text below walks through data of ChEMBL document CHEMBL3400054, “Polybrominated diphenyl ethers with potent and broad spectrum antimicrobial activity from the marine sponge Dysidea” (2015).

In brackets after ≈: the same amount, converted by molar mass.

What all share (assay type): functional
In one experiment the test system is Listeria monocytogenes. Kind of experiment: Antimicrobial activity against Listeria monocytogenes incubated at 37 degC for 24 hrs by broth macrodilution method.
The test system of experiment [1] is Staphylococcus aureus. Kind of experiment: Antimicrobial activity against methicillin-resistant Staphylococcus aureus incubated at 37 degC for 24 hrs by broth macrodilution method.
Another experiment relates to Streptococcus pneumoniae. Briefly: Antimicrobial activity against Streptococcus pneumoniae incubated at 37 degC for 24 hrs by broth macrodilution method.
For another experiment, the system named is Bacillus cereus. Briefly: Antimicrobial activity against Bacillus cereus incubated at 37 degC for 24 hrs by broth macrodilution method.
Another experiment deals with Salmonella sp. Kind of experiment: Antimicrobial activity against Salmonella sp. incubated at 37 degC for 24 hrs by broth macrodilution method.
For experiment [2], the system named is Klebsiella pneumoniae. Briefly: Antimicrobial activity against Klebsiella pneumoniae ATCC 13883 incubated at 37 degC for 24 hrs by broth macrodilution method. The following applies: ATCC 13883, 24 h.
For the next experiment, the system named is Campylobacter jejuni. Kind of experiment: Antimicrobial activity against Campylobacter jejuni ATCC 33291 incubated at 37 degC for 24 hrs by broth macrodilution method. The note with it: ATCC 33291, 24 h.
A further experiment relates to Clostridioides difficile. Kind of experiment: Antimicrobial activity against Clostridium difficile ATCC 9689 incubated at 37 degC for 24 hrs by broth macrodilution method. The note with it: ATCC 9689, 24 h.
Another experiment has as its system Escherichia coli. Briefly: Antimicrobial activity against Escherichia coli O157:H7 incubated at 37 degC for 24 hrs by broth macrodilution method. The following applies: O157:H7, 24 h.
Experiment [3] concerns Staphylococcus aureus. Kind of experiment: Antimicrobial activity against methicillin-sensitive Staphylococcus aureus incubated at 37 degC for 24 hrs by broth macrodilution method.
The next experiment has as its system Neisseria gonorrhoeae. Kind of experiment: Antimicrobial activity against Neisseria gonorrhoeae incubated at 37 degC for 24 hrs by broth macrodilution method.
Another experiment deals with Pseudomonas. Kind of experiment: Antimicrobial activity against Pseudomonas incubated at 37 degC for 24 hrs by broth macrodilution method.
For the next experiment, the system named is Pseudomonas aeruginosa. Briefly: Antimicrobial activity against Pseudomonas aeruginosa incubated at 37 degC for 24 hrs by broth macrodilution method.
Experiment [4] deals with Klebsiella pneumoniae. Briefly: Antimicrobial activity against Klebsiella pneumoniae.

With `Oc1c(Br)cc(Br)cc1Oc1ccc(Br)cc1Br`, the minimum inhibitory concentration (MIC) with Listeria monocytogenes was found to be 1 µg/mL (≈ 1.99 µM); against Staphylococcus aureus [1], 1 µg/mL (≈ 1.99 µM); against Streptococcus pneumoniae it was 5 µg/mL (≈ 9.96 µM); in the experiment with Bacillus cereus, 5 µg/mL (≈ 9.96 µM); against Salmonella sp. it was 10 µg/mL (≈ 19.9 µM); in the experiment on Klebsiella pneumoniae [2], 5 µg/mL (≈ 9.96 µM). The MIC against Campylobacter jejuni was 5 µg/mL (≈ 9.96 µM); in the experiment with Clostridioides difficile, 10 µg/mL (≈ 19.9 µM); with Escherichia coli, 10 µg/mL (≈ 19.9 µM).
For the compound `Oc1cc(Br)cc(Br)c1Oc1ccc(Br)cc1Br`, the minimum inhibitory concentration (MIC) with Staphylococcus aureus [3] was 1 µg/mL (≈ 1.99 µM); with Listeria monocytogenes, 2 µg/mL (≈ 3.99 µM); against Neisseria gonorrhoeae, 2 µg/mL (≈ 3.99 µM); with Staphylococcus aureus [1], 0.1 µg/mL (≈ 0.199 µM); against Bacillus cereus it was 0.1 µg/mL (≈ 0.199 µM); in the experiment on Salmonella sp., 1 µg/mL (≈ 1.99 µM). The minimal inhibitory concentration (MIC) with Pseudomonas came out at 4 µg/mL (≈ 7.97 µM); against Pseudomonas aeruginosa it was 16 µg/mL (≈ 31.9 µM); in the experiment with Klebsiella pneumoniae [2] it was 0.1 µg/mL (≈ 0.199 µM); against Campylobacter jejuni, 5 µg/mL (≈ 9.96 µM); with Clostridioides difficile, 4 µg/mL (≈ 7.97 µM); with Escherichia coli, 8 µg/mL (≈ 15.9 µM).
`Oc1cc(Br)c(Br)c(Br)c1Oc1ccc(Br)cc1Br`: the minimum inhibitory concentration (MIC) was determined as 0.1 µg/mL (≈ 0.172 µM) against Listeria monocytogenes; 0.1 µg/mL (≈ 0.172 µM) with Staphylococcus aureus [1]; 10 µg/mL (≈ 17.2 µM) with Salmonella sp.; 5 µg/mL (≈ 8.61 µM) against Campylobacter jejuni; 10 µg/mL (≈ 17.2 µM) in the experiment on Clostridioides difficile.
As for `CO[C@@]1(NC(=O)Cc2cccs2)C(=O)N2C(C(=O)O)=C(COC(N)=O)CS[C@@H]21` [CEFOXITIN], the MIC in the experiment with Klebsiella pneumoniae [4] was found to be 2 µg/mL (≈ 4.68 µM); in the experiment on Klebsiella pneumoniae [2], 0.25 µg/mL (≈ 0.585 µM).
As for `O=C(O)c1cn(C2CC2)c2cc(N3CCNCC3)c(F)cc2c1=O` [CIPROFLOXACIN], the results for the minimum inhibitory concentration (MIC) against Klebsiella pneumoniae [4] and with Klebsiella pneumoniae [2] were 0.5 µg/mL (≈ 1.51 µM) and 0.125 µg/mL (≈ 0.377 µM), respectively.
With `C[C@@H](O)[C@H]1C(=O)N2C(C(=O)O)=C(SCCNC=N)C[C@H]12` [IMIPENEM ANHYDROUS], the minimum inhibitory concentration (MIC) against Klebsiella pneumoniae [4] and in the experiment with Klebsiella pneumoniae [2] was 0.25 µg/mL (≈ 0.835 µM) in each case.
